The values below come from patent publication US4965280A, “Antifungal carbinols” (E. I. Du Pont de Nemours and Company, priority 1989, dated 1990).

In brackets after ≈: the same amount, converted by molar mass. Read-outs that look alike come from different tables or passages of the source.

For one assay, the system named is Phytophthora infestans. Briefly: whole plant or invertebrate. The format is in vivo. The conditions noted are these: for pest or weed control at 100 ppm: Phytophthora infestans, in Solanum lycopersicum, read-out: disease control rating, Ex. H, 100 PPM.
The next assay deals with Botrytis cinerea. Briefly: Example C bean grey mold. The class given is in vivo. A digest of the protocol:
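Spray rates: 100 and 20 ppm. Vehicle: purified water with 6% acetone by final volume plus 250 ppm TREM 014 (polyhydric alcohol esters). Host plants, broad bean seedlings, were wetted until run-off.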

Another assay concerns Pythium aphanadermatum. Kind of assay: Example J cucumber damping off. The class given is in vivo. Conditions: Pythium, 336 h; 5 kg/ha; read-out: disease control rating, Ex. J. The gist of the method:
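This cucumber damping-off test used soil and seeds infested with a sand–cereal preparation carrying mycelium of Pythium aphanadermatum. Incubation took place in a growth chamber held at 30° C. for 14 days. Afterwards, the extent of disease was scored as a disease control rating.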

The test system of assay [1] is Candida albicans ATCC 11651. Briefly: In vitro antifungal MIC, microtiter broth dilution. The conditions noted are these: for MIC: Candida albicans, ATCC11651, 24 h, read-out: MIC values, C. albicans, 30°, 24 hours. (In general: In broth dilution the organism is exposed to a series of concentrations in liquid medium.)
The test system of assay [2] is Aspergillus fumigatus ATCC 28214. Kind of assay: In vitro antifungal MIC, microtiter broth dilution. The conditions noted are these: for MIC: Aspergillus fumigatus, ATCC28214, 24 h, read-out: MIC values, A. fumigatus, 30°, 24 hours.
The test system of assay [3] is Candida albicans ATCC 11651. Kind of assay: In vivo systemic Candida infection in mice, primary assay. The conditions noted are these: 150 mg/kg per day; for responders at 150 mg/kg: Candida albicans, read-out: % Survival. Further details: species or system Candida albicans; CF-1 female mice. The gist of the method:
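CF-1 female mice (20 g, 10 per group) were infected IV with 0.2 ml of 1×10^7/ml C. albicans ATCC 11651, then given test compound subcutaneously at 50 or 150 mg/kg/day at 1 and 6 h post-infection and once daily for three more days. Survival was followed for 21 days against infected untreated mice; ≥70% protection at 14 days was scored active.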

For assay [4], the system named is Rhizoctonia solani. Kind of assay: Example K cotton blight. The format is in vivo. Conditions: 336 h, 5 kg/ha, read-out: disease control rating, Ex. K. On the procedure: […] Seeds and soil were then inoculated with a mixture of sand, cereal and mycelium of the fungus Rhizoctonia solani, causal agent of cotton blight, and incubated in a growth chamber at 30° C. for 14 days. Disease ratings were then made.

For a further assay, the system named is Venturia inaequalis. Briefly: Example A apple scab. The conditions noted are these: read-out: disease control rating, Ex. A. The format is in vivo. The gist of the method:
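Spray application to run-off on apple seedlings; compound at 100 or 20 ppm in water with 250 ppm TREM 014 (polyhydric alcohol esters) and 6% acetone of final volume.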

Assay [5] deals with Erysiphe graminis f. sp. tritici. Kind of assay: Example D wheat powdery mildew. The class given is in vivo. Conditions: Blumeria graminis, 144 h, read-out: disease control rating, Ex. D. The gist of the method: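 Seedling wheat was treated by spraying to run-off; formulation used acetone as co-solvent (6% final) and TREM 014 surfactant at 250 ppm, with compound at 100 or 20 ppm.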

Assay [6] concerns Rhizoctonia solani. Kind of assay: Example F rice sheath blight. The class given is in vivo. The gist of the method:
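Foliar run-off spray, rice seedlings: compound at 100 or 20 ppm in aqueous 250 ppm polyhydric alcohol ester surfactant, acetone 6% v/v final.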

Another assay concerns Pyricularia oryzae. Kind of assay: whole plant or invertebrate. The format is in vivo. Conditions: for pest or weed control at 100 ppm: read-out: disease control rating, Ex. E, 100 PPM.
In assay [7] the test system is Fusarium oxysporum f. sp. cucumerinum. Briefly: Example L cucumber wilt. The format is in vivo. Conditions: 336 h, 5 kg/ha, read-out: disease control rating, Ex. L. On the procedure:
[…] Seeds and soil were then inoculated with a mixture of sand, cereal and mycelium of the fungus Fusarium oxysporum f. sp. cucumerinum, causal agent of cucumber wilt, and incubated in a growth chamber at 30° C. for 14 days. Disease ratings were then made.

Another assay deals with Puccinia recondita. Kind of assay: Example G wheat leaf rust. Conditions: read-out: disease control rating, Ex. G. The class given is in vivo.
Assay [8] has as its system Cercosporidium personatum. Kind of assay: Example B Peanut Late Leafspot. Conditions: Nothopassalora personata, read-out: disease control rating, Ex. B. The class given is in vivo. The gist of the method:
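Spray suspensions at 100 or 20 ppm, prepared from acetone solutions (acetone 6% of final volume) in water carrying 250 ppm of a polyhydric alcohol ester surfactant, were applied to peanut seedlings until run-off.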

Another assay relates to Plasmorpara viticola. Briefly: Example I grape downy mildew. The class given is in vivo. The conditions noted are these: read-out: disease control rating, Ex. I. The gist of the method:
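Applied as a foliar spray to run-off on grape seedlings, the compounds were formulated at 100 or 20 ppm in water containing 250 ppm TREM 014, with acetone making up 6% of the volume.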

The subject of another assay is Sclerotium rolfsii. Kind of assay: Example M southern blight. The class given is in vivo. Conditions: Agroathelia rolfsii, 336 h; 5 kg/ha; read-out: disease control rating, Ex. M. On the procedure: […] Seeds and soil were then inoculated with a mixture of sand, cereal and mycelium of the fungus Sclerotium rolfsii, causal agent of sourthern blight, and incubated in a growth chamber at 30° C. for 14 days. Disease ratings were then made.

Where [9] appears, read: Botrytis cinerea, 24 h, 100 PPM, read-out: disease control rating, Ex. C.
Setting [10] is: Rhizoctonia solani, 144 h, 100 PPM, read-out: disease control rating, Ex. F.

As usually defined, the MIC is the lowest concentration that inhibits growth of the organism. As to `C=C(c1ccc(F)cc1)C(O)(Cn1cncn1)c1ccc(Cl)c(Cl)c1` (centres unmarked) [Example 651, 2-(3,4-Dichlorophenyl)-3-(4-fluorophenyl)-1-(1H-1,2,4-triazol-1-yl)-3-buten-2-ol], the pest or weed control at 100 ppm in the assay with Phytophthora infestans worked out at 0%; in the assay with Botrytis cinerea (setting [9]), 42%; in the assay with Rhizoctonia solani [6] (setting [10]), 62%; in the assay with Pyricularia oryzae (Pyricularia oryzae, 120 h) it was 0%; with Plasmorpara viticola, 46%. Also, the pest or weed control at 20 ppm in the assay with Botrytis cinerea (Botrytis cinerea, 24 h, 20 PPM, read-out: disease control rating, Ex. C) came to 7%; with Venturia inaequalis (20 PPM), 67%; in [5] (20 PPM), 67%; in the assay with Rhizoctonia solani [6] (Rhizoctonia solani, 144 h, 20 PPM, read-out: disease control rating, Ex. F), 0%; with Pyricularia oryzae (Pyricularia oryzae, 120 h, read-out: disease control rating, Ex. E, 20 PPM) it was 0%; in the assay with Puccinia recondita (20 PPM), 100%. Moreover, the pest or weed control at 20 ppm in assay [8] (20 PPM) was found to be 0%. Moreover, the pest or weed control at 5000 g/ha (with Pythium aphanadermatum; in the assay with Rhizoctonia solani [4]; in assay [7]; in the assay with Sclerotium rolfsii) was 0% each time. Also, the MIC in assay [1] turned out to be 0.8 µg/mL (≈ 2.12 µM); in assay [2], 100 µg/mL (≈ 264 µM). Also, the responders at 150 mg/kg came to 100% in assay [3] (ATCC11651, 168 h, day 7); 50% in [3] (ATCC11651, 336 h, day 14); 20% in assay [3] (ATCC11651, 504 h, day 21).

As for `C=C(c1cccc(Cl)c1)C(O)(Cn1cncn1)c1ccc(F)cc1` (centres unmarked) [Example 39], the pest or weed control at 100 ppm in the assay on Phytophthora infestans stood at 0%; in the assay with Botrytis cinerea (setting [9]), 96%; with Venturia inaequalis it was 89%; in assay [5], 98%; in the assay on Rhizoctonia solani [6] (setting [10]), 100%; in the assay with Pyricularia oryzae (Pyricularia oryzae, 120 h), 7%. In addition, the pest or weed control at 100 ppm was 100% in the assay with Puccinia recondita, 97% in assay [8] and 81% in the assay with Plasmorpara viticola. The pest or weed control at 5000 g/ha (in the assay on Pythium aphanadermatum; with Rhizoctonia solani [4]; in [7]; in the assay on Sclerotium rolfsii) was 0% in each case. Also, the MIC was determined as 0.4 µg/mL (≈ 1.16 µM) in [1] and 25 µg/mL (≈ 72.7 µM) in assay [2]. Further, the responders at 150 mg/kg was determined as 100% in [3] (ATCC11651, 168 h, day 7) and 80% in [3] (ATCC11651, 336 h, day 14).

`C=C(c1ccc(F)cc1)C(O)(Cn1cncn1)c1ccccc1Cl` (centres unmarked) [Example 646]: the pest or weed control at 100 ppm in the assay with Phytophthora infestans is 0%; in the assay on Botrytis cinerea (setting [9]) it was 95%; with Venturia inaequalis, 100%; in [5], 98%; in the assay with Rhizoctonia solani [6] (setting [10]), 61%; in the assay with Pyricularia oryzae (Pyricularia oryzae, 120 h) it was 97%. Besides, the values for the pest or weed control at 100 ppm (with Puccinia recondita; in assay [8]; with Plasmorpara viticola) were 100%, 100% and 99%, respectively. Further, the pest or weed control at 5000 g/ha in the assay on Pythium aphanadermatum came to 100%; with Rhizoctonia solani [4], 0%; in assay [7], 0%; with Sclerotium rolfsii, 0%. For the same molecule, the MIC is 0.03 µg/mL (≈ 0.0873 µM) in assay [1] and 0.4 µg/mL (≈ 1.16 µM) in [2]. Besides, the responders at 150 mg/kg came to 100% in assay [3] (ATCC11651, 168 h, day 7); 100% in assay [3] (ATCC11651, 336 h, day 14); 70% in [3] (ATCC11651, 504 h, day 21).

For the molecule `C=C(c1ccc(F)cc1)C(O)(Cn1cncn1)c1ccc(F)cc1` (single isomer, unassigned) [Example 1277], the “disease control rating, Ex. H” value with Phytophthora infestans (100 PPM) is recorded as 0%. The “disease control rating, Ex. C” value with Botrytis cinerea (100 PPM) is given as 0%. Moreover, the pest or weed control at 5000 g/ha (in the assay with Pythium aphanadermatum; in the assay with Rhizoctonia solani [4]; in [7]; in the assay on Sclerotium rolfsii) was 0% throughout. In addition, the “MIC values, C. albicans” value in [1] (30°, 24 hours) turned out to be 0.03 µg/mL (≈ 0.0916 µM). Moreover, the “MIC values, A. fumigatus” value in assay [2] (30°, 24 hours) was 6.3 µg/mL (≈ 19.2 µM). Moreover, the “% Survival” value stood at 100% in [3] (day 14) and 90% in [3] (day 21). In addition, the responders at 150 mg/kg in assay [3] (ATCC11651, 168 h, day 7) was found to be 100%. Besides, the pest or weed control at 100 ppm was determined as 9% in the assay on Venturia inaequalis; 0% in assay [5]; 39% with Puccinia recondita; 65% in assay [8]; 25% in the assay on Plasmorpara viticola. Also, the “disease control rating, Ex. F” value with Rhizoctonia solani [6] (100 PPM) was 0%. Moreover, the “disease control rating, Ex. E” value with Pyricularia oryzae (100 PPM) stood at 0%.

Regarding `C=C(c1ccccc1F)C(O)(Cn1cncn1)c1ccc(F)cc1` (centres unmarked) [Example 10], the pest or weed control at 100 ppm was 0% in the assay on Phytophthora infestans; 52% with Botrytis cinerea (setting [9]); 0% with Venturia inaequalis; 63% in assay [5]; 17% with Rhizoctonia solani [6] (setting [10]); 0% in the assay on Pyricularia oryzae (Pyricularia oryzae, 120 h). Further, the pest or weed control at 100 ppm in the assay with Puccinia recondita amounted to 64%; in assay [8], 76%; with Plasmorpara viticola it was 0%. The pest or weed control at 5000 g/ha (in the assay on Pythium aphanadermatum; with Rhizoctonia solani [4]; in [7]; with Sclerotium rolfsii) was 0% each time. Also, the MIC in assay [1] turned out to be 1.6 µg/mL (≈ 4.89 µM); in assay [2] it was 25 µg/mL (≈ 76.4 µM). The responders at 150 mg/kg was 20% in assay [3] (ATCC11651, 168 h, day 7); 10% in assay [3] (ATCC11651, 336 h, day 14); 0% in [3] (ATCC11651, 504 h, day 21).

Consider `C=C(c1ccc(F)cc1)C(O)(Cn1cncn1)c1ccc(-c2ccccc2)cc1` (centres unmarked) [Example 657], for which the pest or weed control at 100 ppm in the assay on Phytophthora infestans is 24%; in the assay with Botrytis cinerea (setting [9]), 81%; in the assay with Venturia inaequalis, 62%; in assay [5], 98%; in the assay with Rhizoctonia solani [6] (setting [10]) it was 97%; with Pyricularia oryzae (Pyricularia oryzae, 120 h) it was 49%. In addition, the pest or weed control at 100 ppm with Puccinia recondita came to 100%; in assay [8], 100%; in the assay with Plasmorpara viticola, 37%. Also, the pest or weed control at 5000 g/ha (with Pythium aphanadermatum; with Rhizoctonia solani [4]; in assay [7]; with Sclerotium rolfsii) was 0% each time. For the same molecule, the MIC in assay [1] stood at 0.4 µg/mL (≈ 1.04 µM); in [2], 100 µg/mL (≈ 259 µM). For the same molecule, the responders at 150 mg/kg in [3] (ATCC11651, 168 h, day 7) was 0%; in assay [3] (ATCC11651, 336 h, day 14), 0%; in assay [3] (ATCC11651, 504 h, day 21), 0%.
